# Data taken from patent publication US20200215204A1, “EARLY-ONSET PARKINSON'S DISEASE MODEL: (D331Y) PLA2G6 KNOCKIN MODEL, PLATFORM AND METHOD FOR DRUG SCREENING, AND KIT OF DETECTION” (Chang Gung Memorial Hospital, Linkou, priority 2019, published 2020).
# Columns and labels:
# [1] = tested on: MPTP-induced mice model of PD; settings: 25 mg/kg for 21 days; MPTP-induced mice model of PD (Zhao T. T. et al.); cited from earlier work
# [2] = tested on: PLA2G6^D331Y/D331Y knockin mice; assay: Locomotor activity in open field boxes after L-DOPA in homozygous (D331Y) PLA2G6 knockin mice; assay type: in vivo; settings: about 1.5 mg/kg; homozygous PLA2G6^D331Y/D331Y knockin mouse at about 9 months old
# Protocol: Behavioral Assessments The locomotor activity of WT or (D331Y) PLA2G6 KI mice were evaluated in open field boxes for 60 minutes. Movements of animal were recorded and assessed with the TopScan video tracking system (Clever Sys., Inc.). The locomotor activity of mouse was examined by measuring the velocity and distance. To evaluate the therapeutic benefit of L-DOPA in PLA2G6^D331Y/D331Y mice, benserazide (0.5 mg/kg) and L-DOPA (1.5 mg/kg) were intraperitoneally administered into animal. The locomotor activity was recorded 40 min after the injection.
# [3] = tested on: PD patients carrying PLA2G6 mutations; settings: cited from earlier work
structure (smiles),measurement,setting,value
N[C@@H](Cc1ccc(O)c(O)c1)C(=O)O [L-DOPA],therapeutic effect,[1],significant therapeutic effect
same,symptoms of motor deficit,[2],significantly improve symptoms of said motor deficit
same,effectiveness in treating patients,[3],effective
